{"source": "patent US20170080128A1", "about": "“NOVEL ENDOTRACHEAL TUBE FOR THE REDUCTION OF INTUBATION-RELATED COMPLICATION IN NEONATES AND BABIES” (Brigham Young University, priority 2015, published 2017)", "system": "tracheal mucosal integrity", "assay": "Tracheal mucosal integrity of intubated pre-term lambs (histology)", "assay_type": "in vivo", "source_text": "FIG. 2 compares histological images of tracheal tissue of a pre-term lamb intubated with an ETT not coated with a CSA-containing coating to tracheal tissue of a pre-term lamb intubated with an ETT coated with a CSA-containing coating.\nPre-term lambs were intubated using ETTs including a coating having CSA-131 and tracheal mucosal integrity of the lambs was compared to the tracheal mucosal integrity of a control group (intubated with uncoated ETTs). […] FIG. 2 illustrates the histological appearance of tracheas of the premature lambs that were intubated for three days. […] An area of denuded epithelium (arrowhead), and accumulation of white blood cells (arrow) are highlighted."}
{"molecule": "CCCCCCCCCCCCNCCC[C@@H](C)[C@H]1CC[C@H]2[C@@H]3[C@H](OCCCN)C[C@@H]4C[C@H](OCCCN)CC[C@]4(C)[C@H]3C[C@H](OCCCN)[C@]12C.Cl.Cl.Cl.Cl", "note": "[CSA-131]", "values": [{"measurement": "Histological appearance of trachea (FIG. 2, image (b))", "setting": "ETT coated with a CSA-131 containing coating, intubated for three days", "value": "the epithelium is intact and the subjacent connective tissue region is not inflamed"}, {"measurement": "Tracheal mucosal integrity compared to control group (uncoated ETTs)", "setting": "ETTs including a coating having CSA-131", "value": "markedly improved mucosal integrity"}]}
